According to US6093836A, “1,3-diphenylpropane derivatives having inhibitory activity against tyrosinase and process for preparation thereof” (priority 1997, dated 2000):
Values after ≈ are worked out from the molar mass of the structure shown. Where two headings read alike, the source gives them in different places.

Key:
[1] = system: B-16 mouse melanoma cells; test: Inhibitory effect against melanin biosynthesis in B-16 mouse melanoma cell; format: cell-based; conditions: 72 h, read-out: IC50 (inhibition of melanin biosynthesis)
Protocol: Inhibitory Effect Against Melanin Biosynthesis in B-16 Mouse Melanoma Cell
B-16 mouse melanoma cells were cultured to a density of 10^6 cells/dish in culture media compounds in various concentrations were respectively added thereto and then cultured for 3 days. The cells were separated from the culture dish by the treatment with trypsin and then centrifuged to extract melanin(wherein a pellet was extracted using 2N perchloric acid). 1 ml of 1N aqueous sodium hydroxide solution was added to the melanin extracted and the resulting mixture was heated to dissolve melanrin. The absorbance at 400 nm was measured by a spectrophotometer and the amount of the melanin produced was represented by the absorbance per unit cell numbers(10^6 cell).

[2] = background; cited from earlier work
[3] = biological target: tyrosinase; test: Inhibitory activity against tyrosinase (mushroom enzyme, L-tyrosine substrate, absorbance at 475 nm); format: biochemical, mushrooms; conditions: pH 6.8, 37° C., 10 minutes
Protocol: That is, a sample is introduced into a microplate, to which are added a phosphate buffer solution(pH 6.8) and a L-tyrosine solution.
Inhibitory Activity Against Tyrosinase
Enzyme tyrosinase extracted from mushrooms(manufactured by Sigma) was used in the present experiment. First, a substrate L-tyrosine was dissolved in phosphate buffer solution(0.05M, pH 6.8) to a concentration of 1.5 mM and then 0.01 ml of this solution was introduced to a 0.3 ml cuvette in a spectrophotometry. Dopa as a cofacter was prepared as a solution in a concentration of 0.06 mM and 0.01 ml of this dopa solution was added to the substrate solution. To the resulting mixture were added the inhibitor of formula (I) and phosphate buffer solution to a total volume of 0.31 ml. The reaction was started by adding 0.1 ml of an enzyme solution in which tyrosinase was dissolved in phosphate buffer solution in a concentration of 60 U/ml. 0.1 ml of phosphate buffer solution instead of the enzyme solution was added to the blank sample. The reaction was carried out for 10 minutes at 37° C. and then absorbance at 475 nm was measured using Spectrophotometer (Beckman DU-7500).
[formula] in the above formula A represents absorbance at 475 nm when the inhibitor is added, and
B represents absorbance at 475 nm when the inhibitor is not added.

[4] = literature, J. Soc. Cosmet. Chem., 42, 361, 1991; cited from earlier work
[5] = B-16 mouse melanoma cells, 3 days, absorbance at 400 nm

SMILES | IC50 [1, 5] [µg/mL] | IC50 (inhibitory activity against tyrosinase) [3] [µg/mL] | whitening effect [2] | side effects [4] | IC50 ([1]; Mus musculus) [µg/mL]
OC[C@H]1O[C@@H](Oc2ccc(O)cc2)[C@H](O)[C@@H](O)[C@@H]1O [Arbutin, reference compound] | 300 (≈ 1100 µM) |  | little whitening effect |  | 
Cc1c(C)c(O)c(C(O)CCc2ccc(O)cc2O)c(C)c1O (centres unmarked) [Compound 1, 4-[3-hydroxy-3-(2,5-dihydroxy-3,4,6-trimethyl-phenyl)-propyl]-benzene-1,3-diol] | 10 (≈ 31.4 µM) | 0.5 (≈ 1.57 µM) |  |  | 
Cc1c(C)c(O)c(CCCc2ccc(O)cc2O)c(C)c1O [Compound 2, 4-13-(2,5-dihydroxy-3,4,6-trimethyl-phenyl)-propyll-benzene-1,3-diol] | 5 (≈ 16.5 µM) | 1 (≈ 3.31 µM) |  |  | 
Oc1ccc(O)cc1 [Hydroquinone, reference compound] |  | 0.5 (≈ 4.54 µM) |  | degeneration or lethal mutation of melanin, damage of the cellular function | 
O=c1cc(CO)occ1O [Kojic acid, reference compound] |  |  |  |  | 15 (≈ 106 µM)

Second part, led by results:

IC50 [1, 5] [µg/mL] | IC50 (inhibitory activity against tyrosinase) [3] [µg/mL] | SMILES | whitening effect [2] | side effects [4] | IC50 ([1]; Mus musculus) [µg/mL]
40 (≈ 120 µM) | 50 (≈ 150 µM) | COc1c(C)c(C)c(O)c(C)c1C(O)CCc1ccc(O)cc1O (centres unmarked) [Compound 3, 4-[3-hydroxy-3-(5-hydroxy-2-methoxy-3,4,6-trimethyl-phenyl)-propyl]-benzene-1,3-diol] |  |  | 
45 (≈ 142 µM) | 20 (≈ 63.2 µM) | COc1c(C)c(C)c(O)c(C)c1CCCc1ccc(O)cc1O [Compound 4] |  |  | 
5 (≈ 15 µM) | 0.1 (≈ 0.301 µM) | COc1c(C)c(C)c(O)c(C(O)CCc2ccc(O)cc2O)c1C (centres unmarked) [Compound 5, 4-[3-hydroxy-3-(2-hydroxy-5-methoxy-3,4,6-trimethyl-phenyl)-propyl]-benzene-1,3-diol] |  |  | 
10 (≈ 31.6 µM) | 0.1 (≈ 0.316 µM) | COc1c(C)c(C)c(O)c(CCCc2ccc(O)cc2O)c1C [Compound 6, 4-[3-(2-hydroxy-5-methoxy-3,4,6-trimethyl-phenyl)-propyl]-benzene-1,3-diol] |  |  | 
20 (≈ 57.7 µM) | 1.0 (≈ 2.89 µM) | CCOc1c(C)c(C)c(O)c(C(O)CCc2ccc(O)cc2O)c1C (centres unmarked) [Compound 7] |  |  | 
2 (≈ 5.37 µM) | 0.3 (≈ 0.805 µM) | Cc1c(C)c2c(c(C(O)CCc3ccc(O)cc3O)c1O)CCC(C)(C)O2 (centres unmarked) [Compound 8, 4-[3-hydroxy-3-(6-hydroxy-2,2,7,8-tetramethyl-chroman-5-yl)-propyl]-benzene-1,3-diol] |  |  | 
3 (≈ 8.42 µM) | 0.3 (≈ 0.842 µM) | Cc1c(C)c2c(c(CCCc3ccc(O)cc3O)c1O)CCC(C)(C)O2 [Compound 9, 4-[3-(6-hydroxy-2,2,7,8-tetramethyl-chroman-5-yl)-propyl]-benzene-1,3-diol] |  |  | 
